Values quoted from earlier work in US4904678A, “Sickle cell anemia control” (Norris; Jerome J., priority 1987, dated 1990).

Tested on: erythrocytes
Details: about 4 mols of potassium cyanate incorporated per mol of hemoglobin tetramer

N#CO [potassium cyanate]
Erythrocytes prevented from sickling: up to 80%
